Results: patent US6511966B2, “Mitochondria protecting agents for treating mitochondria associated diseases” (MitoKor, priority 1998, dated 2003)

tested on: SH-SY5Y neuroblastoma cells; assay: Ionomycin induced apoptosis (membrane blebbing by light microscopy); type: cell-based, human; conditions: 10 μM ionomycin for 10 minutes, then 6h incubation at 37° C.; untreated cells <5%
Protocol: SH-SY5Y neuroblastoma cells (1×10^5 cells) are rinsed with one volume 1×PBS, and then treated with 10 μM ionomycin (Calbiochem, San Diego, Calif.) in DMEM supplemented with 10% fetal calf serum (FCS) (Gibco, Life Technologies, Grand Island, N.Y.) for 10 minutes, followed by two washes with DMEM (10% FCS). After 6h incubation at 37° C. in DMEM (10% FCS), cells are visualized by light microscopy (20X magnification). […] When cells are simultaneously treated with ionomycin and 2 mM creatine, the proportion of cells undergoing apoptosis as evidenced by membrane blebbing is reduced to approximately 10%. Candidate mitochondria protecting agents are assayed to determine whether they provides the same magnitude of protection from induction of apoptosis as does creatine in this ionomycin induced apoptosis assay.

Compound | ionomycin treated cells exhibiting membrane blebbing (final stage of apoptosis)
C[C@H](CCC(=O)O)C[C@H](C)C[C@H](C)C(=O)/C=C(\O)[C@H](C)C[C@H](C)C/C=C/[C@@H](C)[C@@H](O)[C@@H](C)[C@@H](O)C[C@@H]1CC[C@@](C)([C@H]2CC[C@@](C)([C@@H](C)O)O2)O1 [ionomycin] | Approximately 80%

same assay, conditions: cells simultaneously treated with 10 μM ionomycin and 2 mM creatine; 6h incubation at 37° C.

Compound | proportion of cells undergoing apoptosis as evidenced by membrane blebbing
CN(CC(=O)O)C(=N)N [creatine] | approximately 10%

tested on: SH-SY5Y human neuroblastoma cells; assay: DCFC assay for inhibition of ROS production, cell-based aspect; conditions: Homo sapiens, 0.5 h; SH-SY5Y cells pre-loaded with DCFC-DA; ferric chloride/ascorbate induced free radical formation; fluorescence change over 30 minutes; read-out: IC50 Cell-Based (Inhibition of ROS, DCFC assay)
From the text: According to this assay, the ability of a mitochondria protecting agent of the invention to inhibit production of ROS intracellularly may be compared to its antioxidant activity in a cell-free environment. […] Non-fluorescent DCFC is converted upon oxidation to a fluorophore that can be quantified fluorimetrically. Cell membranes are also permeable to DCFC, but the charged acetate groups of DCFC are removed by intracellular esterase activity, rendering the indicator less able to diffuse back out of the cell. In the cell-based aspect of the DCFC assay for inhibition of production of ROS, cultured cells may be pre-loaded with a suitable amount of DCFC and then contacted with a mitochondria protecting agent. After an appropriate interval, free radical production in the cultured cells may be induced by contacting them with iron (III)/ascorbate and the relative mean DCFC fluorescence can be monitored as a function of time. In the cell-based aspect of the DCFC assay, monolayers of cultured adherent SH-SY5Y human neuroblastoma cells (Biedler et al., Cancer Res. 33:2643, 1973) at or near confluence were rinsed and harvested using trypsin according to standard methods. […] The excess DCFC-DA was removed by needle aspiration and each well was gently rinsed twice with HBSS. Each well then received 80 μl of HBSS and 10 μl of mitochondria protecting agent, or vehicle control, diluted into HBSS from stock solutions of dimethylformamide or dimethylsulfoxide. The final concentration of the organic solvent was maintained at or below 0.1% (v/v) in HBSS while in contact with cells. Cells were equilibrated for 15 minutes at room temperature with the mitochondria protecting agent (or vehicle control) and then 10 μl of fresh 500 μM ferric chloride/300 μM ascorbate solution was added to initiate free radical formation. Fluorescence of each microculture in the 96-well plate was quantified immediately using a Cytofluor fluorimetric plate reader (model #2350, Millipore Corp., Bedford, Mass.; excitation wavelength=485 nm, emission wavelength=[…]) and t0 fluorescence was recorded. The 96-well plates were incubated 30 minutes at 37° C./5% CO2 and fluorescence at 530 nm was again measured (t30). […] The cells were then harvested by trypsinization and counted using a hemacytometer in order to normalize the data as Δ(t30,−t0)RMF per cell. The efficacy of a candidate mitochondria protecting agent was determined by comparing its ability to inhibit ROS production relative to the vehicle control.

Compound | IC50
CC(C)(C)CC(C)(C)c1ccc(O)c(N)c1 [(I-3)] | 65 nM
CCCc1cc(O)ccc1O [(I-10)] | 120 nM
CC(C)(c1ccc(O)c(N)c1)c1ccc(O)c(N)c1 [(II-2)] | 35 nM

Results, then the compound that gave them:

IC50 | Compound
25 nM | CCCCCCCCc1ccc(O)c(N)c1 [(I-2), 2-amino4octyl phenol]
100 nM | OCCCc1ccc(O)c(O)c1 [(I-5)]
200 nM | CCCc1ccc(O)c(O)c1 [(I-6), 2-hydroxy4-propylphenol]
400 nM | CCCc1ccc(OC(C)=O)c(OC(C)=O)c1 [(I-8)]
1000 nM | CC(C)(c1ccc(O)cc1)c1ccc(O)cc1 [(II-5), 4,4′-Isopropylidenediphenol]
10 nM | CN(C)c1cc(C(C)(C)c2ccc(O)c(N(C)C)c2)ccc1O [(II-6)]
70 nM | CC1=CC(C)(C)Nc2ccc(O)cc21 [(III-3), 2,2,4-trimethyl-1,2-dihydro-quinolin-6-ol]
1000 nM | Cc1c(C)c2c(c(C)c1O)CCC(C)(CNNC(=N)N)O2 (stereo not drawn) [(IV-9)]

same assay, conditions: Homo sapiens, SH-SY5Y, 0.5 h, read-out: IC50 Cell-Based (Inhibition of ROS, DCFC assay)

Compound | IC50
CC(C)(c1ccc(O)cc1)c1ccc(O)c(NC(=N)N)c1 [(II-10)] | 1000 nM

same assay, conditions: SH-SY5Y cells pre-loaded with DCFC-DA; ferric chloride/ascorbate induced free radical formation; fluorescence change over 30 minutes; read-out: IC50 Cell-Based (Inhibition of ROS, DCFC assay)

Compound | IC50
CCOc1ccc2c(c1)C(C)=CC(C)(C)N2 [(III-4), 6-ethoxy-1,2-dihydro-2,2,4-trimethylguinoline] | 20 nM
